From EP2161278B1, “Single-chain coiled coil scaffold” (Complix N.V., priority 2008, dated 2010)
Peptide text beside a SMILES is read from it.

Assay: Thermal denaturation of trimeric coiled coil peptides by CD thermal scan (signal at 222 nm versus temperature, curve fitting)
Type: physicochemical
Settings: for effect of core substitution on stability (transition temperature) compared to the reference peptide comprising isoleucine at positions 3a and 3d: core mutants at positions 3a and 3d of the reference peptide with glutamine at 2a, Figure 9
Description: The said synthesized peptide was dissolved at a concentration of 292 microM in 20 mM phosphate buffer (PBS), 150 mM NaCl, pH 7.2. The CD spectra were measured between […], at 5 and 90 degrees Celsius (Figure 3). The spectrum at 5 degrees Celsius was indicative of a high alpha-helical secondary structure content, in agreement with the expectation that all heptad regions, but not all of the flanking residues, would assemble as alpha-helical coiled coils.
To analyse whether the temperature-induced transition between helical and nonhelical states was reversible, a forward (up) and backward (down) thermal scan was performed on the same sample, by recording the CD signal at […] as a function of temperature at a scanning rate of about 1 degree Celsius per minute (Figure 4). It was observed that the up and down scans almost perfectly coincided, thereby confirming the quantitative unfolding and refolding of the peptides in the sample.
It was further analyzed whether the thermal unfolding curve of Figure 4 conformed to the thermodynamic equations describing the equilibrium folding/unfolding reaction between three molecules free (monomeric) peptide and one entity of folded (trimeric) complex. This reaction is generally written as 3 peptide <=> peptide3 wherein "<=>" refers to a chemical equilibrium, "peptide" to a monomeric peptide in solution and "peptide3" to a trimeric entity in the folded (assembled, associated) state. This thermal unfolding curve was fitted to the theoretic equations: θ(T) = θM (T) + (θT(T)-θM(T))(1+root(F(-(1)/(2)+sqrt((1)/(4) + (F)/(27))), 3)+root(F(-(1)/(2)-sqrt((1)/(4) + (F)/(27))), 3)) [formula] wherein F = (exp(-(ΔHt)/(RT)(1-T/T1)-(ΔCp)/(RT)(T-Tt-Tln(T/Tt))))/(4) [formula] and T≡ the temperature, in degrees Kelvin, of the sample θ(T)≡ the CD-signal [theta]222 nm, in deg cm^2 dmol^-1, as a function of T θM(T)≡ the CD-signal for 100% free (monomeric) peptide as a function of T θT(T) ≡ the CD-signal for 100% associated (trimeric) peptide as a function of T Tt ≡ the transition temperature, where 50% of the total peptide concentration is associated ΔHt ≡ the enthalpy difference, in kJ per mole peptide, between mono- and trimeric states ΔCp ≡ the heat capacity difference, in J mol^-1 K^-1, between mono- and trimeric states R ≡ the ideal (universal) gas constant ≡ 8.31 J mol^-1 K^-1
The global CD signal was somewhat lower than expected, which could be due to an instrumental deviation, an error in the concentration determination, a lower purity, or a lower than expected alpha-helical content. Nevertheless, the main goal of this experiment was to examine the effect of the glutamine-to-isoleucine mutant on the stability of the complex. […] The estimated transition temperature was around 97 degrees Celsius, although the latter was difficult to determine because of incompleteness of the transition.
All ten peptides were analyzed by thermal CD scanning as in Examples 3 and 4. Fitting of the thermal denaturation curves, as described in Example 3, gave the corresponding transition temperatures shown in Figure 9. […]

SMILES | effect of core substitution on stability (transition temperature) compared to the reference peptide comprising isoleucine at positions 3a and 3d | thermal stability (resistance against thermal denaturation), in words (CD thermal scan)
CC[C@H](C)[C@H](NC(=O)[C@H](C)NC(=O)[C@H](C)NC(=O)[C@H](CCC(N)=O)NC(=O)[C@H](CCC(N)=O)NC(=O)[C@H](CCCCN)NC(=O)[C@H](CCC(N)=O)NC(=O)[C@@H](NC(=O)[C@H](CCC(=O)O)NC(=O)[C@H](CCC(=O)O)NC(=O)[C@@H](NC(=O)[C@H](CO)NC(=O)[C@H](CCSC)NC(C)=O)[C@@H](C)CC)[C@@H](C)CC)C(=O)N[C@@H](CCC(N)=O)C(=O)N[C@@H](CCCCN)C(=O)N[C@@H](CCC(N)=O)C(=O)N[C@@H](CC(C)C)C(=O)N[C@@H](C)C(=O)N[C@@H](C)C(=O)N[C@H](C(=O)N[C@@H](CCC(N)=O)C(=O)N[C@@H](CCCCN)C(=O)N[C@@H](CCC(N)=O)C(=O)N[C@H](C(=O)N[C@@H](Cc1ccc(O)cc1)C(=O)N[C@@H](CCCNC(=N)N)C(=O)N[C@@H](CCSC)C(=O)N[C@H](C(=O)N1CCC[C@H]1C(N)=O)[C@@H](C)O)[C@@H](C)CC)[C@@H](C)CC [3aL] (Ac-MSIEEIQKQQAAIQKQLAAIQKQIYRMTP-NH2) | slightly stabilizing effect | 
CC[C@H](C)[C@H](NC(=O)[C@H](C)NC(=O)[C@H](C)NC(=O)[C@H](CCC(N)=O)NC(=O)[C@H](CCC(N)=O)NC(=O)[C@H](CCCCN)NC(=O)[C@H](CCC(N)=O)NC(=O)[C@@H](NC(=O)[C@H](CCC(=O)O)NC(=O)[C@H](CCC(=O)O)NC(=O)[C@@H](NC(=O)[C@H](CO)NC(=O)[C@H](CCSC)NC(C)=O)[C@@H](C)CC)[C@@H](C)CC)C(=O)N[C@@H](CCC(N)=O)C(=O)N[C@@H](CCCCN)C(=O)N[C@@H](CCC(N)=O)C(=O)N[C@H](C(=O)N[C@@H](C)C(=O)N[C@@H](C)C(=O)N[C@H](C(=O)N[C@@H](CCC(N)=O)C(=O)N[C@@H](CCCCN)C(=O)N[C@@H](CCC(N)=O)C(=O)N[C@H](C(=O)N[C@@H](Cc1ccc(O)cc1)C(=O)N[C@@H](CCCNC(=N)N)C(=O)N[C@@H](CCSC)C(=O)N[C@H](C(=O)N1CCC[C@H]1C(N)=O)[C@@H](C)O)[C@@H](C)CC)[C@@H](C)CC)[C@@H](C)CC [Q2a] (Ac-MSIEEIQKQQAAIQKQIAAIQKQIYRMTP-NH2) |  | moderately stable

Now from value to molecule:

effect of core substitution on stability (transition temperature) compared to the reference peptide comprising isoleucine at positions 3a and 3d | thermal stability (resistance against thermal denaturation), in words (CD thermal scan) | SMILES
disruptive |  | CC[C@H](C)[C@H](NC(=O)[C@H](C)NC(=O)[C@H](C)NC(=O)[C@H](CCC(N)=O)NC(=O)[C@H](CCC(N)=O)NC(=O)[C@H](CCCCN)NC(=O)[C@H](CCC(N)=O)NC(=O)[C@@H](NC(=O)[C@H](CCC(=O)O)NC(=O)[C@H](CCC(=O)O)NC(=O)[C@@H](NC(=O)[C@H](CO)NC(=O)[C@H](CCSC)NC(C)=O)[C@@H](C)CC)[C@@H](C)CC)C(=O)N[C@@H](CCC(N)=O)C(=O)N[C@@H](CCCCN)C(=O)N[C@@H](CCC(N)=O)C(=O)N[C@H](C(=O)N[C@@H](C)C(=O)N[C@@H](C)C(=O)N[C@@H](CO)C(=O)N[C@@H](CCC(N)=O)C(=O)N[C@@H](CCCCN)C(=O)N[C@@H](CCC(N)=O)C(=O)N[C@H](C(=O)N[C@@H](Cc1ccc(O)cc1)C(=O)N[C@@H](CCCNC(=N)N)C(=O)N[C@@H](CCSC)C(=O)N[C@H](C(=O)N1CCC[C@H]1C(N)=O)[C@@H](C)O)[C@@H](C)CC)[C@@H](C)CC [3dS] (Ac-MSIEEIQKQQAAIQKQIAASQKQIYRMTP-NH2)
disruptive |  | CC[C@H](C)[C@H](NC(=O)[C@H](C)NC(=O)[C@H](C)NC(=O)[C@H](CCC(N)=O)NC(=O)[C@H](CCC(N)=O)NC(=O)[C@H](CCCCN)NC(=O)[C@H](CCC(N)=O)NC(=O)[C@@H](NC(=O)[C@H](CCC(=O)O)NC(=O)[C@H](CCC(=O)O)NC(=O)[C@@H](NC(=O)[C@H](CO)NC(=O)[C@H](CCSC)NC(C)=O)[C@@H](C)CC)[C@@H](C)CC)C(=O)N[C@@H](CCC(N)=O)C(=O)N[C@@H](CCCCN)C(=O)N[C@@H](CCC(N)=O)C(=O)N[C@@H](CO)C(=O)N[C@@H](C)C(=O)N[C@@H](C)C(=O)N[C@H](C(=O)N[C@@H](CCC(N)=O)C(=O)N[C@@H](CCCCN)C(=O)N[C@@H](CCC(N)=O)C(=O)N[C@H](C(=O)N[C@@H](Cc1ccc(O)cc1)C(=O)N[C@@H](CCCNC(=N)N)C(=O)N[C@@H](CCSC)C(=O)N[C@H](C(=O)N1CCC[C@H]1C(N)=O)[C@@H](C)O)[C@@H](C)CC)[C@@H](C)CC [3aS] (Ac-MSIEEIQKQQAAIQKQSAAIQKQIYRMTP-NH2)
relatively strong |  | CC[C@H](C)[C@H](NC(=O)[C@H](C)NC(=O)[C@H](C)NC(=O)[C@H](CCC(N)=O)NC(=O)[C@H](CCC(N)=O)NC(=O)[C@H](CCCCN)NC(=O)[C@H](CCC(N)=O)NC(=O)[C@@H](NC(=O)[C@H](CCC(=O)O)NC(=O)[C@H](CCC(=O)O)NC(=O)[C@@H](NC(=O)[C@H](CO)NC(=O)[C@H](CCSC)NC(C)=O)[C@@H](C)CC)[C@@H](C)CC)C(=O)N[C@@H](CCC(N)=O)C(=O)N[C@@H](CCCCN)C(=O)N[C@@H](CCC(N)=O)C(=O)N[C@H](C(=O)N[C@@H](C)C(=O)N[C@@H](C)C(=O)N[C@@H](C)C(=O)N[C@@H](CCC(N)=O)C(=O)N[C@@H](CCCCN)C(=O)N[C@@H](CCC(N)=O)C(=O)N[C@H](C(=O)N[C@@H](Cc1ccc(O)cc1)C(=O)N[C@@H](CCCNC(=N)N)C(=O)N[C@@H](CCSC)C(=O)N[C@H](C(=O)N1CCC[C@H]1C(N)=O)[C@@H](C)O)[C@@H](C)CC)[C@@H](C)CC [3dA] (Ac-MSIEEIQKQQAAIQKQIAAAQKQIYRMTP-NH2)
